Experimental data: patent US20260193236A1 (Protego Biopharma, Inc., priority 2022, published 2026)

tested on: IRE1-XBP1s (XBP1-RLuc splicing reporter in HEK293 T-REx cells); assay: IRE1-XBP1s activation assay (XBP1-RLuc splicing reporter, HEK293 T-REx cells, luminescence relative to thapsigargin); assay type: cell-based; conditions: 18 h, compound 10 μM, HEK293 T-REx XBP1-RLuc reporter cells, relative to thapsigargin (Tg) 500 nM, read-out: Activity (IRE1-XBP1s activation, luminescence as % signal relative to thapsigargin, % Tg)
Description: IRE1-XBP1s activation Assay: HEK293 T-REx cells stably expressing the XBP1-RLuc splicing reporter were treated with an IRE1-XBP1s activator provided herein (10 μM) in the presence or absence of the IRE1 active site inhibitor 4μ8C (32 μM) for 18 h. Luminescence was shown as the percentage signal relative to thapsigargin (Tg) (500 nM, 18 h).

| SMILES | activation at 10 µM [%] |
| --- | --- |
| Cc1ccc(OCCN(C)C(=O)Cn2cc(NC(=O)CCNc3ccnc4ncnn34)cn2)cc1 [Compound 200] | < 30 |
| Cc1ccc(OCCN(C)C(=O)Cn2cc(NC(=O)CCOc3ccc(C)nc3C)cn2)cc1 [Compound 11] | 30 to 50 |
| Cc1ccc(OCCN(C)C(=O)Cn2cc(NC(=O)CCOc3c(F)cncc3F)cn2)cc1 [Compound 18] | > 50 |
| Cc1ccc(OCCN(C)C(=O)Cn2cc(NC(=O)CCNc3cc(C)cnc3F)cn2)cc1 [Compound 194] | < 30 |
| CN(CCOc1ccc(F)cc1)C(=O)Cn1cc(NC(=O)CCOc2ccccc2)cn1 [Compound 29] | < 30 |
| Cc1ccc(OCCN(C)C(=O)Cn2cc(NC(=O)COCc3cccnc3N)cn2)cc1 [Compound 84] | < 30 |
| Cc1ccc(OCCN(C)C(=O)Cn2cc(NC(=O)CCNc3nc(C)ccc3F)cn2)cc1 [Compound 159] | 30 to 50 |
| Cc1ccc(OCCN(C)C(=O)Cn2cc(NC(=O)CCNc3ncc(C)cn3)cn2)cc1 [Compound 93] | < 30 |
| Cc1ccc(OCCN(C)C(=O)Cn2cc(NC(=O)COc3cc4ccccn4n3)cn2)cc1 [Compound 289] | > 50 |
| Cc1ccc(OCCN(C)C(=O)Cn2cc(NC(=O)CCNc3cccnc3F)cn2)cc1 [Compound 189] | < 30 |
| CC(C)c1cncc(F)c1NCCC(=O)Nc1cnn(CC(=O)N(C)CCOc2ccc(C(F)(F)F)cn2)c1 [Compound 269] | > 50 |
| Cc1nc(F)ccc1NCCC(=O)Nc1cnn(CC(=O)N(C)CCOc2ccn(C)n2)c1 [Compound 242] | < 30 |
| Cc1ccc(OCCN(C)C(=O)Cn2cc(NC(=O)CCCc3ccccc3)cn2)cc1 [Compound 92, N-(1-(2-(methyl(2-(p-tolyloxy)ethyl)amino)-2-oxoethyl)-1H-pyrazol-4-yl)-4-phenylbutanamide] | < 30 |
| CN(CCOc1ccc(C(F)(F)F)cn1)C(=O)Cn1cc(NC(=O)CCNc2ccnc(F)n2)cn1 [Compound 267] | 30 to 50 |
| Cc1ccc(OCCN(C)C(=O)Cn2cc(NC(=O)CCOc3ccc(F)cc3C(C)C)cn2)cc1 [Compound 66] | > 50 |
| CN(CCOc1ccncc1)C(=O)Cn1cc(NC(=O)CCOc2ccccc2F)cn1 [Compound 55] | < 30 |
| Cc1ccc(OCCN(C)C(=O)Cn2cc(NC(=O)CCOc3ccc(C(F)(F)F)cc3)cn2)cc1 [Compound 44] | < 30 |
| COc1ncc(Cl)cc1NCCC(=O)Nc1cnn(CC(=O)N(C)CCOc2ccc(C)cc2)c1 [Compound 183] | < 30 |
| Cc1ccc(OCCN(C)C(=O)Cn2cc(NC(=O)CCNc3cnc(F)c(Cl)c3)cn2)cc1 [Compound 184] | > 50 |
| Cc1ccc(OCCN(C)C(=O)Cn2cc(NC(=O)CCNc3cc(Cl)nc4nccn34)cn2)cc1 [Compound 226] | < 30 |

| SMILES | activation at 10 µM [%] |
| --- | --- |
| CC(C)c1cncc(F)c1OCCC(=O)Nc1cnn(CC(=O)N(C)CCOc2cnc(C(F)(F)F)cn2)c1 [Compound 278] | > 50 |
| Cc1ccc(OCCC(=O)Nc2cnn(CC(=O)N(C)CCOc3ccc(F)c(OC(F)(F)F)c3)c2)c(F)c1 [Compound 78] | < 30 |
| Cc1ccc(OCCN(C)C(=O)Cn2cc(NC(=O)CCNc3ccnc(C(F)(F)F)c3)cn2)cc1 [Compound 128] | < 30 |
| Cc1ccc(OCCN(C)C(=O)Cn2cc(NC(=O)CCOc3ncccc3N)cn2)cc1 [Compound 114] | > 50 |
| CNc1nccc(OCCC(=O)Nc2cnn(CC(=O)N(C)CCOc3ccc(C)cc3)c2)n1 [Compound 106] | > 50 |
| Cc1ccc(OCCN(C)C(=O)Cn2cc(NC(=O)CCOc3ncncc3N)cn2)cc1 [Compound 109] | > 50 |
| C=C(C)c1cncc(F)c1NCCC(=O)Nc1cnn(CC(=O)N(C)CCOc2ccc(C)cc2)c1 [Compound 254] | > 50 |
| Cc1ccc(OCCN(C)C(=O)Cn2cc(NC(=O)CCNc3cncc(C(F)(F)F)n3)cn2)cc1 [Compound 185] | < 30 |
| COc1cc(NCCC(=O)Nc2cnn(CC(=O)N(C)CCOc3ccc(C)cc3)c2)ccn1 [Compound 120] | > 50 |
| COc1ccc(OCCN(C)C(=O)Cn2cc(NC(=O)CCNc3ccnc4ncnn34)cn2)cc1 [Compound 124] | 30 to 50 |
| Cc1ccc(OCCN(C)C(=O)Cn2cc(NC(=O)CCOc3cccnc3C(F)(F)F)cn2)cc1 [Compound 16] | 30 to 50 |
| Cc1ccc2nc(OCCN(C)C(=O)Cn3cc(NC(=O)CCNc4ccc(F)nc4C)cn3)sc2c1 [Compound 239] | < 30 |
| Cc1ccc(OCCN(C)C(=O)Cn2cc(NC(=O)CCOc3ccncc3[N+](=O)[O-])cn2)cc1 [Compound 111] | < 30 |
| Cc1ccc(OCCN(C)C(=O)Cn2cc(NC(=O)CCNc3ccc(C#N)cn3)cn2)cc1 [Compound 157] | < 30 |
| Cc1cc(OCCN(C)C(=O)Cn2cc(NC(=O)CCNc3ccnc(F)n3)cn2)no1 [Compound 263] | < 30 |
| Cc1ccc(OCCN(C)C(=O)Cn2cc(NC(=O)CCNc3ccc(Cl)cn3)cn2)cc1 [Compound 129] | < 30 |
| C#CCCC1(CCC(=O)Nc2ccc(OCCC(=O)Nc3cnn(CC(=O)N(C)CCOc4ccc(C)cc4)c3)nc2)N=N1 [Compound 234] | > 50 |
| Cc1ccc(OCCC(=O)Nc2cnn(CC(=O)N(C)CCOc3ccc(Cl)cc3)c2)c(F)c1 [Compound 71] | < 30 |
| Cc1ccc(OCCN(C)C(=O)Cn2cc(NC(=O)CCNc3cc(C)nc(C)c3)cn2)cc1 [Compound 123, 3-((2,6-dimethylpyridin-4-yl)amino)-N-(1-(2-(methyl(2-(p-tolyloxy)ethyl)amino)-2-oxoethyl)-1H-pyrazol-4-yl)propanamide] | 30 to 50 |

same assay, conditions: 18 h, read-out: Activity (IRE1-XBP1s activation, luminescence as % signal relative to thapsigargin, % Tg)

| SMILES | activation at 10 µM [%] |
| --- | --- |
| Cc1ccc(OCCN(C)C(=O)Cn2cc(NC(=O)C(C)(C)COc3ccccc3)cn2)cc1 [Compound 37, 2,2-dimethyl-N-(1-(2-(methyl(2-(p-tolyloxy)ethyl)amino)-2-oxoethyl)-1H-pyrazol-4-yl)-3-phenoxypropanamide] | < 30 |
